According to paper PMC3058569 (Chemical biology & drug design, 2010):
Values after ≈ are worked out from the molar mass of the structure shown. Values joined by “and” are separate entries in the source; they are usually repeats but may differ in a detail not shown here. Identical values can stand only once. One block for each compound: values may come before it.

Tests used:
Cryptococcus neoformans = assay: Antifungal susceptibility testing, modified CLSI method; format: cell-based
[1] = system: L. donovani promastigotes; assay: Antileishmanial activity, Alamar Blue assay; format: cell-based, Leishmania donovani; conditions: for IC50 / IC90: Leishmania donovani; for IC50: read-out: Antileishmanial L. donovani IC50; for IC90: read-out: Antileishmanial L. donovani IC90; for Antileishmanial L. donovani IC50 / Antileishmanial L. donovani IC90: promastigotes; for Antileishmanial L. donovani IC90: 90% inhibition of leishmanial growth
A. fumigatus = assay: Antifungal susceptibility testing, modified CLSI method; format: cell-based; conditions: Aspergillus fumigatus
[2] = system: P. falciparum chloroquine resistant (W2) clone; assay: microbe, parasite or virus in culture; format: cell-based, Plasmodium falciparum; conditions: for IC50: Plasmodium falciparum, W2, read-out: Antimalarial P. falciparum W2 Clone IC50
[3] = system: P. falciparum chloroquine sensitive (D6) clone; assay: In vitro antimalarial activity, plasmodial LDH activity; format: cell-based, Plasmodium falciparum; conditions: for IC50: Plasmodium falciparum, D6, read-out: Antimalarial P. falciparum D6 Clone IC50
[4] = system: Mycobacterium intracellulare; assay: Susceptibility by modified Alamar Blue procedure; format: cell-based
C. glabrata = assay: Antifungal susceptibility testing, modified CLSI method; format: cell-based, Candida glabrata; conditions: 50% inhibition of fungal growth
[5] = system: methicillin resistant S. aureus (MRS); assay: Antibacterial susceptibility testing, modified CLSI method; format: cell-based, Staphylococcus aureus; conditions: for IC50 Antibacterial MRS: 50% inhibition of bacterial growth
Staphylococcus aureus = assay: as above; format: cell-based; conditions: for IC50 Antibacterial S. aureus: 50% inhibition of bacterial growth; for IC50 against S. aureus and methicillin resistant S. aureus: range over both compounds and both strains (abstract)
[6] = system: BSL-1 and 2 model organisms (fungi, bacteria, P. falciparum, L. donovani); assay: Overall in vitro antimicrobial and antiprotozoal screen; format: cell-based; conditions: for Activity against all other test organisms: fungi and bacteria other than S. aureus and MRS; for Antimicrobial or antiprotozoal activity (overall): all test organisms
[7] = lowest concentration that allows no detectable growth

- IC50 Antifungal C. neoformans (Cryptococcus neoformans; 50% inhibition of fungal growth): 1.28 µg/mL (≈ 1.39 µM)
- MIC (Cryptococcus neoformans; Cryptococcus neoformans, read-out: MIC Antifungal C. neoformans): 2.5 µg/mL (≈ 2.71 µM)
- IC50 [1]: 0.2 µg/mL (≈ 0.216 µM)
- IC90 [1]: 0.4 µg/mL (≈ 0.433 µM)
- IC50 (A. fumigatus; read-out: IC50 Antifungal A. fumigatus): 0.98 µg/mL (≈ 1.06 µM)
- MIC (A. fumigatus; read-out: MIC Antifungal A. fumigatus): 2.5 µg/mL (≈ 2.71 µM)
SMILES: C[C@@H]1[C@H](O)[C@@H](C)/C=C/C=C/C=C/C=C/C=C/C=C/C=C/[C@H](O[C@@H]2O[C@H](C)[C@@H](O)[C@H](N)[C@@H]2O)C[C@@H]2O[C@](O)(C[C@@H](O)C[C@@H](O)[C@H](O)CC[C@@H](O)C[C@@H](O)CC(=O)O[C@H]1C)C[C@H](O)[C@H]2C(=O)O [Amphotericin B]

SMILES: C[C@@H]1CC[C@H]2[C@@H](C)C(=O)O[C@@H]3O[C@@]4(C)CC[C@@H]1[C@]32OO4 [Artemisinin]
- IC50 [2]: 0.0065 µg/mL (≈ 0.023 µM)
- IC50 [3]: 0.01 µg/mL (≈ 0.0354 µM)

SMILES: CCN(CC)CCCC(C)Nc1ccnc2cc(Cl)ccc12 (stereo not shown) [Chloroquine]
- IC50 [2]: 0.12 µg/mL (≈ 0.375 µM)
- IC50 [3]: 0.015 µg/mL (≈ 0.0469 µM)

- MIC ([4]; Mycobacterium intracellulare, read-out: MIC Antibacterial M. intracellulare): 0.5 µg/mL (≈ 1.51 µM)
SMILES: O=C(O)c1cn(C2CC2)c2cc(N3CCNCC3)c(F)cc2c1=O [Ciprofloxacin]
- IC50 ([4]; Mycobacterium intracellulare, read-out: IC50 Antibacterial M. intracellulare): 0.39 µg/mL (≈ 1.18 µM)

SMILES: NC(=O)c1cc[n+](CCCBr)cc1.[Br-] [Compound 17]
- Antimalarial P. falciparum W2 Clone IC50 ([2]; chloroquine resistant clone): 4.0 µg/mL
- Antimalarial P. falciparum D6 Clone IC50 ([3]; chloroquine sensitive clone): 3.7 µg/mL

- Antileishmanial L. donovani IC50 [1]: 19 µg/mL
- Antileishmanial L. donovani IC90 [1]: 40 µg/mL
- IC50 Antifungal C. glabrata (C. glabrata): >20 µg/mL
- IC50 Antibacterial S. aureus (Staphylococcus aureus): 15.3 µg/mL and 15.27 µg/mL
- IC50 against S. aureus and methicillin resistant S. aureus (Staphylococcus aureus): 12.2 to 17.7 µg/mL
SMILES: ON=Cc1cccc[n+]1Cc1ccc(Br)s1.[Cl-] [Compound 21]
- IC50 Antibacterial MRS [5]: 14.2 µg/mL and 14.19 µg/mL
- Activity against all other test organisms [6]: inactive

SMILES: ON=Cc1cccc[n+]1Cc1csc2ccccc12.[Cl-] [Compound 24, 1-(Benzothiophene-3-yl)-methyl-2-hydroxyiminomethylpyridinium chloride]
- Antileishmanial L. donovani IC50 [1]: 18 µg/mL
- Antileishmanial L. donovani IC90 [1]: 40 µg/mL
- IC50 Antibacterial M. intracellulare ([4]; 50% inhibition of bacterial growth): >20 µg/mL
- IC50 Antibacterial MRS [5]: 17.7 µg/mL and 17.72 µg/mL
- MIC Antibacterial MRS [5, 7]: 20 µg/mL
- IC50 Antibacterial S. aureus (Staphylococcus aureus): 12.2 µg/mL and 12.23 µg/mL
- MIC Antibacterial S. aureus (Staphylococcus aureus; [7]): 20 µg/mL
- IC50 against S. aureus and methicillin resistant S. aureus (Staphylococcus aureus): 12.2 to 17.7 µg/mL
- Activity against all other test organisms [6]: inactive

SMILES: O/N=C/c1cc[n+](COC[n+]2ccc(/C=N/O)cc2)cc1 [Compound 37, obidoxime, reference compound]
- Antimicrobial or antiprotozoal activity (overall) [6]: completely devoid of any antimicrobial or antiprotozoal activities

SMILES: ON=Cc1cc[n+](CCC[n+]2ccc(/C=N/O)cc2)cc1 [Compound 42, trimedoxime, reference compound]
- Antimicrobial or antiprotozoal activity (overall) [6]: completely devoid of any antimicrobial or antiprotozoal activities

- IC50 [1]: 1.2 µg/mL (≈ 3.52 µM)
- IC90 [1]: 5 µg/mL (≈ 14.7 µM)
SMILES: N=C(N)c1ccc(OCCCCCOc2ccc(C(=N)N)cc2)cc1 [Pentamidine, reference compound]
